Columns and labels:
Atp8b1 E-KO mice [1] = settings: mother mice fed 1% choline supplemented diet; pups at 4 weeks of age
Experimental: (§1) All animal experiments were approved by and performed in accordance with the guidelines of the animal experiment committee of the University of Tokyo. To generate Atp8b1^flox/flox mice, ICR and C57BL/6J mice were purchased from Charles River Laboratories International, Inc. (Yokohama, Japan). Mice were kept under pathogen-free conditions at a room temperature of 23.5° C.±2.5° C. and a relative humidity of 52.5%+12.5% under a 14-hour light: 10-hour dark cycle. […] In order to supplement choline to pups, mother mice were fed with a 1.0% choline supplemented diet (D20011404, Research Diets) until weaning of their pups.
Male mice harboring the designed floxed Atp8b1 allele with flox mutation were bred with female C57BL/6 mice, and the heterozygous floxed (Atp8b1^flox/+) mice in the obtained offsprings were intercrossed to produce homozygous floxed (Atp8b1^flox/flox) mice. The Atp8b1^flox/flox mice were crossed with villin-Cre transgenic mice (Stock No: 021504; The Jackson Laboratory, Bar Harbor, ME), and Atp8b1^flox/+; villin-Cre mice in the obtained offsprings were mated with Atp8b1^flox/flox mice to obtain intestinal epithelial cell (IEC)-specific Atp8b1 knockout (Atp8b1 IEC-KO; Atp8b1^flox/flox; villin-Cre) mice (Atp8b1 E-KO). Male Atp8b1 E-KO were mated with female Atp8b1^flox/flox mice, and the resulting Atp8b1 E-KO mice and littermate Atp8b1^flox/flox mice were used for animal experiments.
(§2) Male 3 to 4-week-old intestinal epithelial cell-specific Atp8b1 knockout (Atp8b1 E-KO) mice and control mice (littermate Flox/Flox mice) underwent laparotomy under isoflurane anesthesia. […] The blood was centrifuged at 1,700×g for 15 minutes, and plasma was separated. Thereafter, the plasma was flash-frozen in liquid nitrogen and was stored at −80° C. The liver was excised and was then flash-frozen in liquid nitrogen, and thereafter, the thus frozen liver was stored at −80° C., or was used for histological and electron microscopic analyses. The small intestine was excised, was then rinsed with cold PBS containing 0.5m M taurocholic acid, and was then used for histological and electron microscopic analyses, or for preparation of epithelial cells. To isolate epithelial cells from small intestine, TTDR kit (Becton Dickinson, Becton Drive Franklin Lakes, NJ) was used. According to the manufacturer's instructions included with the kit, the small intestine was opened longitudinally, was sliced into small fragments with a size of roughly 2 mm. The fragments were incubated with 1×TTDR diluted with DMEM (11995-065, gibco) at 37° C. for 30 minutes, and the resulting fragments were then mixed with 2 mM EDTA/PBS containing 1% BSA. The thus obtained mixture was filtrated through a 70 μm cell strainer (VWR21008-952; Corning Inc, Corning, NY), and was then centrifugated at 250×g at 4° C. for 10 minutes. The obtained cell pellets were incubated with 1×Pharm Lyse (Becton Dickinson, Becton Drive Franklin Lakes, NJ) at room temperature for 15 minutes for the lysis of red blood cells, and the resultant was then mixed with 2 mM EDTA/PBS containing 1% BSA. The thus obtained mixture was centrifuged at 250×g at 4° C. for 10 minutes. The prepared epithelial cells were flash frozen in liquid nitrogen, and were then stored at −80° C.
ALT and AST were determined by automatic measurement with Dri-chem (FUJIFILM, Tokyo, Japan).
The liver was cut into small pieces, was then fixed with 10% neutral buffered formalin, and was then embedded in paraffin. […]

Atp8b1 E-KO mice [2] = test system: Atp8b1 E-KO mice
Experimental: as §1, §2
Metabolites were extracted from plasma, liver, and intestinal epithelial cells with methanol. After centrifugation at 20,000×g at 4° C. for 5 minutes, the supernatant was mixed with 400 mM ammonium sulfate at a ratio of 19:1. The mixture was centrifuged at 20,000×g at 4° C. for 5 minutes. The supernatant was applied to the LC/MS/MS system, which consisted of a UHPLC Nexera liquid chromatography system (Shimadzu co., Kyoto, Japan) and a 5500QTRAP mass spectrometer (AB Sciex pte. ltd., Toronto, Canada). The analytes were passed through a ZIC-CHILIC column (2.1×100 mm, 3 μm, Merck Millipore, Darmstadt, Germany) at a temperature of 30° C. with a gradient elution of the mobile phases, 10 mM ammonium formate aqueous solution and acetonitrile at a flow rate at 0.4 mL/min. The eluent was ionized using electrospray ionization and was scanned with an MRM mode (see Yuan et al., Nat. Protoc. 2012, 7 (5), 872-881. https://doi.org/10.1038/nprot.2012.024). Each MRM peak was assigned to a target molecule in comparison with its authentic standard.
The concentrations of choline, betaine, dimethylglycine (N,N-dimethylglycine) and glycerophosphorylcholine (sn-glycero-3-phosphocholine) in plasma were determined by liquid chromatography/tandem mass spectrometry (LC/MS/MS) assay. The sample was mixed with 98-fold volume of ethanol and 1-fold volume of the internal standard (IS) solution (10 μmol/L choline in water, 10 μmol/L glycerophosphorylcholine in water, and 1 μmol/L betaine in water).

[3] = liver of pups, mothers fed 1% choline supplemented diet vs normal diet (0.1% choline)
[4] = liver of pups, mothers fed 1% choline supplemented diet, compared with control mice
[5] = plasma and liver of Atp8b1 E-KO pups, mothers fed 1% choline supplemented diet, summary statement
[6] = plasma of pups, mothers fed 1% choline supplemented diet vs normal diet (0.1% choline)
[7] = plasma of pups, mothers fed 1% choline supplemented diet, compared with control mice
[8] = small intestinal epithelial cells of pups, mothers fed 1% choline supplemented diet vs normal diet (0.1% choline)

C[N+](C)(C)CCO [choline]
resolved: increase in liver weight observed in Atp8b1 E-KO pups (Atp8b1 E-KO mice [1])
increased: amount of betaine in the pups (Atp8b1 E-KO mice [2]; [5]) | amount of dimethylglycine in the pups (Atp8b1 E-KO mice [2]; [5]) | amount of phosphatidylcholine (PC) in the pups (Atp8b1 E-KO mice [2]; [5])
recovered: concentration of betaine in liver (Atp8b1 E-KO mice [2]; [4]) | concentration of dimethylglycine in liver (Atp8b1 E-KO mice [2]; [4]) | concentration of phosphatidylcholine (PC) in liver (Atp8b1 E-KO mice [2]; [4]) | concentration of betaine in plasma (Atp8b1 E-KO mice [2]; [7]) | concentration of dimethylglycine in plasma (Atp8b1 E-KO mice [2]; [7])
not changed: concentration of choline in liver (Atp8b1 E-KO mice [2]; [3]) | concentration of glycerophosphorylcholine (GPC) in liver (Atp8b1 E-KO mice [2]; [3]) | concentration of phosphorylcholine in liver (Atp8b1 E-KO mice [2]; [3]) | concentration of choline in plasma (Atp8b1 E-KO mice [2]; [6]) | concentration of glycerophosphorylcholine (GPC) in plasma (Atp8b1 E-KO mice [2]; [6]) | concentration of phosphorylcholine in plasma (Atp8b1 E-KO mice [2]; [6]) | concentration of betaine in small intestinal epithelial cells (Atp8b1 E-KO mice [2]; small intestinal epithelial cells of pups, mothers fed 1% choline supplemented diet) | concentration of choline in small intestinal epithelial cells (Atp8b1 E-KO mice [2]; [8]) | concentration of glycerophosphorylcholine (GPC) in small intestinal epithelial cells (Atp8b1 E-KO mice [2]; [8]) | concentration of phosphorylcholine in small intestinal epithelial cells (Atp8b1 E-KO mice [2]; [8])
reduced: amount of neutrophils (MPO positive cells) in the liver (Atp8b1 E-KO mice [1]) | amount of tissue macrophages (F4/80 positive cells) in the liver (Atp8b1 E-KO mice [1])
No changes were observed: body weight (Atp8b1 E-KO mice [1]) | small intestine length (Atp8b1 E-KO mice [1])
no change: amount of choline in the pups (Atp8b1 E-KO mice [2]; plasma and liver of Atp8b1 E-KO pups, mothers fed 1% choline supplemented diet vs normal diet, summary statement)

From patent publication US20250049735A1, “MEDICINE FOR STEATOHEPATITIS” (The University of Tokyo, priority 2021, published 2025)
